According to ChEMBL document CHEMBL5055672, “Design, Synthesis, Biological Evaluation, and Computational Studies of Novel Fluorinated Candidates as PI3K Inhibitors: Targeting Fluorophilic Binding Sites” (J Med Chem, 2021):

Assays:
CCRF-CEM = experiment: Cytotoxicity against human CCRF-CEM cells assessed as growth inhibition at 10 uM after 48 hrs by sulforhodamine B assay; type: functional; conditions: read-out: GI
K562 = experiment: Cytotoxicity against human K562 cells assessed as growth inhibition at 10 uM after 48 hrs by sulforhodamine B assay; type: functional; conditions: read-out: GI
MOLT-4 = experiment: Cytotoxicity against human MOLT-4 cells assessed as growth inhibition at 10 uM after 48 hrs by sulforhodamine B assay; type: functional; conditions: read-out: GI
SR = experiment: Cytotoxicity against human SR cells assessed as growth inhibition at 10 uM after 48 hrs by sulforhodamine B assay; type: functional; conditions: read-out: GI
HOP-62 = experiment: Cytotoxicity against human HOP-62 cells assessed as growth inhibition at 10 uM after 48 hrs by sulforhodamine B assay; type: functional; conditions: read-out: GI
SF-268 = experiment: Cytotoxicity against human SF-268 cells assessed as growth inhibition at 10 uM after 48 hrs by sulforhodamine B assay; type: functional; conditions: read-out: GI
SF-539 = experiment: Cytotoxicity against human SF-539 cells assessed as growth inhibition at 10 uM after 48 hrs by sulforhodamine B assay; type: functional; conditions: read-out: GI
SNB-19 = experiment: Cytotoxicity against human SNB-19 cells assessed as growth inhibition at 10 uM after 48 hrs by sulforhodamine B assay; type: functional; conditions: read-out: GI
U-251 = experiment: Cytotoxicity against human U-251 cells assessed as growth inhibition at 10 uM after 48 hrs by sulforhodamine B assay; type: functional; conditions: read-out: GI
UACC-62 = experiment: Cytotoxicity against human UACC-62 cells assessed as growth inhibition at 10 uM after 48 hrs by sulforhodamine B assay; type: functional; conditions: read-out: GI
CAKI-1 = experiment: Cytotoxicity against human CAKI-1 cells assessed as growth inhibition at 10 uM after 48 hrs by sulforhodamine B assay; type: functional; conditions: read-out: GI
MDA-MB-231 = experiment: Cytotoxicity against human MDA-MB-231 cells assessed as growth inhibition at 10 uM after 48 hrs by sulforhodamine B assay; type: functional; conditions: read-out: GI
[1] = Cytotoxicity against human Hs 578T cells assessed as growth inhibition at 10 uM after 48 hrs by sulforhodamine B assay; type: functional; conditions: read-out: GI
NCI-H522 = experiment: Cytotoxicity against human NCI-H522 cells assessed as growth inhibition at 10 uM after 48 hrs by sulforhodamine B assay; type: functional; conditions: read-out: GI
UO-31 = experiment: Cytotoxicity against human UO-31 cells assessed as growth inhibition at 10 uM after 48 hrs by sulforhodamine B assay; type: functional; conditions: read-out: GI
MCF7 = experiment: Cytotoxicity against human MCF7 cells assessed as growth inhibition at 10 uM after 48 hrs by sulforhodamine B assay; type: functional; conditions: read-out: GI
UACC-257 = experiment: Cytotoxicity against human UACC-257 cells assessed as growth inhibition at 10 uM after 48 hrs by sulforhodamine B assay; type: functional; conditions: read-out: GI
NCI-H226 = experiment: Cytotoxicity against human NCI-H226 cells assessed as growth inhibition at 10 uM after 48 hrs by sulforhodamine B assay; type: functional; conditions: read-out: GI
OVCAR-4 = experiment: Cytotoxicity against human OVCAR-4 cells assessed as growth inhibition at 10 uM after 48 hrs by sulforhodamine B assay; type: functional; conditions: read-out: GI
SN12C = experiment: Cytotoxicity against human SN12C cells assessed as growth inhibition at 10 uM after 48 hrs by sulforhodamine B assay; type: functional; conditions: read-out: GI
T47D = experiment: Cytotoxicity against human T47D cells assessed as growth inhibition at 10 uM after 48 hrs by sulforhodamine B assay; type: functional; conditions: read-out: GI
MCF-10A = experiment: Cytotoxicity against human MCF10A cells assessed as inhibition of cell growth incubated for 48 hrs by MTT assay; type: cell-based
HL-60(TB) = experiment: Cytotoxicity against human HL-60(TB) cells assessed as growth inhibition at 10 uM after 48 hrs by sulforhodamine B assay; type: functional; conditions: read-out: GI
A549 = experiment: Cytotoxicity against human A549 cells assessed as growth inhibition at 10 uM after 48 hrs by sulforhodamine B assay; type: functional; conditions: read-out: GI
HOP-92 = experiment: Cytotoxicity against human HOP-92 cells assessed as growth inhibition at 10 uM after 48 hrs by sulforhodamine B assay; type: functional; conditions: read-out: GI
NCI-H23 = experiment: Cytotoxicity against human NCI-H23 cells assessed as growth inhibition at 10 uM after 48 hrs by sulforhodamine B assay; type: functional; conditions: read-out: GI
HCT-116 = experiment: Cytotoxicity against human HCT-116 cells assessed as growth inhibition at 10 uM after 48 hrs by sulforhodamine B assay; type: functional; conditions: read-out: GI
SF-295 = experiment: Cytotoxicity against human SF-295 cells assessed as growth inhibition at 10 uM after 48 hrs by sulforhodamine B assay; type: functional; conditions: read-out: GI
SNB-75 = experiment: Cytotoxicity against human SNB-75 cells assessed as growth inhibition at 10 uM after 48 hrs by sulforhodamine B assay; type: functional; conditions: read-out: GI
LOX IMVI = experiment: Cytotoxicity against human LOX IMVI cells assessed as growth inhibition at 10 uM after 48 hrs by sulforhodamine B assay; type: functional; conditions: read-out: GI
OVCAR-8 = experiment: Cytotoxicity against human OVCAR8 cells assessed as growth inhibition at 10 uM after 48 hrs by sulforhodamine B assay; type: functional; conditions: read-out: GI
NCI/ADR-RES = experiment: Cytotoxicity against human NCI-ADR-RES cells assessed as growth inhibition at 10 uM after 48 hrs by sulforhodamine B assay; type: functional; conditions: read-out: GI
786-0 = experiment: Cytotoxicity against human 786-0 cells assessed as growth inhibition at 10 uM after 48 hrs by sulforhodamine B assay; type: functional; conditions: read-out: GI
ACHN = experiment: Cytotoxicity against human ACHN cells assessed as growth inhibition at 10 uM after 48 hrs by sulforhodamine B assay; type: functional; conditions: read-out: GI
BT-549 = experiment: Cytotoxicity against human BT-549 cells assessed as growth inhibition at 10 uM after 48 hrs by sulforhodamine B assay; type: functional; conditions: read-out: GI
MDA-MB-468 = experiment: Cytotoxicity against human MDA-MB-468 cells assessed as growth inhibition at 10 uM after 48 hrs by sulforhodamine B assay; type: functional; conditions: read-out: GI

SMILES: COC(=O)/C=C1\S/C(=N\N=C\c2ccc(OS(=O)(=O)C(F)(F)C(F)(F)C(F)(F)C(F)(F)C(F)(F)C(F)(F)F)cc2)N(c2ccccc2)C1=O
- inhibition of growth at 10 µM (CCRF-CEM): 22.7%
- inhibition of growth at 10 µM (K562): 39%
- inhibition of growth at 10 µM (MOLT-4): 13.4%
- inhibition of growth at 10 µM (SR): 32.7%
- inhibition of growth at 10 µM (HOP-62): 13.1%
- inhibition of growth at 10 µM (SF-268): 10.4%
- inhibition of growth at 10 µM (SF-539): 13.7%
- inhibition of growth at 10 µM (SNB-19): 26.4%
- inhibition of growth at 10 µM (U-251): 10.4%
- inhibition of growth at 10 µM (UACC-62): 17.6%
- inhibition of growth at 10 µM (CAKI-1): 28%
- inhibition of growth at 10 µM (MDA-MB-231): 12.8%
- inhibition of growth at 10 µM [1]: 23.7%

SMILES: O=S(=O)(Oc1ccc(/C=N/NC(=S)Nc2ccccc2)cc1)C(F)(F)C(F)(F)C(F)(F)C(F)(F)C(F)(F)C(F)(F)C(F)(F)C(F)(F)F
- inhibition of growth at 10 µM (NCI-H522): 10.1%
- inhibition of growth at 10 µM (UO-31): 13.3%

SMILES: FC(F)(F)COc1ccc(/C=N/N=c2\scc(-c3ccccc3)n2-c2ccccc2)cc1
- inhibition of growth at 10 µM (MCF7): 53.4%

SMILES: O=S(=O)(Oc1ccc(/C=N/N=c2\scc(-c3ccccc3)n2-c2ccccc2)cc1)C(F)(F)C(F)(F)C(F)(F)C(F)(F)C(F)(F)C(F)(F)C(F)(F)C(F)(F)F
- inhibition of growth at 10 µM (MCF7): 46.1%

SMILES: O=S(=O)(Oc1ccc(/C=N/NC(=S)Nc2ccccc2)cc1)C(F)(F)C(F)(F)C(F)(F)C(F)(F)F
- inhibition of growth at 10 µM (UACC-257): 14.3%
- inhibition of growth at 10 µM (UO-31): 11.8%
- inhibition of growth at 10 µM (MCF7): 14.2%

SMILES: O=S(=O)(Oc1ccc(-c2nnc(Nc3ccccc3)s2)cc1)C(F)(F)C(F)(F)C(F)(F)C(F)(F)F
- inhibition of growth at 10 µM (K562): 12.6%
- inhibition of growth at 10 µM (SR): 10.1%
- inhibition of growth at 10 µM (HOP-62): 12.4%
- inhibition of growth at 10 µM (NCI-H226): 15.8%
- inhibition of growth at 10 µM (UACC-62): 10.7%
- inhibition of growth at 10 µM (OVCAR-4): 17.2%
- inhibition of growth at 10 µM (CAKI-1): 22.1%
- inhibition of growth at 10 µM (SN12C): 14.5%
- inhibition of growth at 10 µM (UO-31): 19.9%
- inhibition of growth at 10 µM (MCF7): 12.8%
- inhibition of growth at 10 µM (T47D): 14.1%

SMILES: COc1cccc2c1C(=O)c1c(O)c3c(c(O)c1C2=O)C[C@@](O)(C(=O)CO)C[C@@H]3O[C@H]1C[C@H](N)[C@H](O)[C@H](C)O1 [DOXORUBICIN]
- IC50 (MCF-10A): 19 µM

SMILES: COC(=O)/C=C1\S/C(=N\N=C\c2ccc(OS(=O)(=O)C(F)(F)C(F)(F)C(F)(F)C(F)(F)F)cc2)N(c2ccccc2)C1=O
- inhibition of growth at 10 µM (UACC-62): 21.6%
- inhibition of growth at 10 µM (MCF7): 10%

SMILES: COC(=O)/C=C1\S/C(=N\N=C\c2ccc(C(F)(F)F)cc2)N(c2ccccc2)C1=O
- inhibition of growth at 10 µM (HL-60(TB)): 16.7%
- inhibition of growth at 10 µM (K562): 21.4%
- inhibition of growth at 10 µM (MOLT-4): 12.8%
- inhibition of growth at 10 µM (SR): 19.6%
- inhibition of growth at 10 µM (A549): 12.4%
- inhibition of growth at 10 µM (HOP-62): 36.6%
- inhibition of growth at 10 µM (HOP-92): 12%
- inhibition of growth at 10 µM (NCI-H23): 10.1%
- inhibition of growth at 10 µM (HCT-116): 32.4%
- inhibition of growth at 10 µM (SF-268): 19.8%
- inhibition of growth at 10 µM (SF-295): 16.6%
- inhibition of growth at 10 µM (SF-539): 21%
- inhibition of growth at 10 µM (SNB-19): 25.8%
- inhibition of growth at 10 µM (SNB-75): 39.3%
- inhibition of growth at 10 µM (U-251): 29.2%
- inhibition of growth at 10 µM (LOX IMVI): 19.9%
- inhibition of growth at 10 µM (UACC-62): 18.4%
- inhibition of growth at 10 µM (OVCAR-8): 26.6%
- inhibition of growth at 10 µM (NCI/ADR-RES): 11.5%
- inhibition of growth at 10 µM (786-0): 11.1%
- inhibition of growth at 10 µM (ACHN): 40.1%
- inhibition of growth at 10 µM (CAKI-1): 28%
- inhibition of growth at 10 µM (SN12C): 24.1%
- inhibition of growth at 10 µM (UO-31): 18.3%
- inhibition of growth at 10 µM (MCF7): 25.2%
- inhibition of growth at 10 µM (MDA-MB-231): 19.8%
- inhibition of growth at 10 µM [1]: 37.6%
- inhibition of growth at 10 µM (BT-549): 13.6%
- inhibition of growth at 10 µM (T47D): 20.4%
- inhibition of growth at 10 µM (MDA-MB-468): 24.6%
